From PubChem BioAssay (NCI)
Where “and” joins values, the source holds several entries; their conditions need not be identical. Equal values may be shown once.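 Following 48 hours of exposure in 96-well plates, responses at five concentrations were used to interpolate endpoints linearly. GI50 = concentration required for 50% inhibition of growth. At the TGI there is no net growth.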

What was measured:
Assay in all cases: inhibition of tumour cell growth, NCI panel, 48 h
K-562 leukemia = system: K-562 leukemia
M14 melanoma = system: M14 melanoma
MALME-3M melanoma = system: MALME-3M melanoma
NCI-H226 lung = system: NCI-H226 lung
NCI-H23 lung = system: NCI-H23 lung
NCI-H522 lung = system: NCI-H522 lung
SF-268 CNS = system: SF-268 CNS
SK-MEL-5 melanoma = system: SK-MEL-5 melanoma
SK-OV-3 ovarian = system: SK-OV-3 ovarian
SR leukemia = system: SR leukemia

Row | Compound | GI50 (K-562 leukemia) | TGI (K-562 leukemia) | GI50 (M14 melanoma) | TGI (M14 melanoma) | GI50 (MALME-3M melanoma) | TGI (MALME-3M melanoma) | GI50 (NCI-H226 lung) | TGI (NCI-H226 lung) | GI50 (NCI-H23 lung) | TGI (NCI-H23 lung) | GI50 (NCI-H522 lung) | TGI (NCI-H522 lung) | GI50 (SF-268 CNS) | TGI (SF-268 CNS) | GI50 (SK-MEL-5 melanoma) | TGI (SK-MEL-5 melanoma) | GI50 (SK-OV-3 ovarian) | TGI (SK-OV-3 ovarian) | TGI (SR leukemia) [µM] | GI50 (SR leukemia) [µM]
1 | Cc1cc(N2CCOCC2)nc(N(CCNc2ccnc3cc(Cl)ccc23)Cc2ccco2)n1 | 2.91 µM | > 100 µM | 2.34 µM | 6.43 µM | 3.41 µM | 10.3 µM | 3.78 µM | 25.5 µM | 5.58 µM | 35.4 µM | 1.84 µM | 4.75 µM | 11.1 µM | 46 µM | 3.1 µM | 12.1 µM | 7.01 µM | 22 µM |  | 
2 | CCOC(=O)/C(=C/c1cc(OC)ccc1OC)CC(=O)O |  | > 31.6 µM |  | > 100 µM |  | > 31.6 µM |  |  |  | > 100 µM |  | > 100 µM |  | > 100 µM |  | > 100 µM |  | > 100 µM | > 100 | 
3 | Cn1c(O)c(C=N)c(=O)n(C)c1=O |  | > 100 µM |  | > 100 µM |  | > 100 µM |  | > 100 µM |  | > 100 µM |  | > 100 µM |  | > 100 µM |  | > 100 µM |  |  | > 100 | 
4 | c1ccc2c(c1)nnn1c3cnccc3nc21 |  | 69.6 µM |  | > 100 µM |  | > 100 µM |  |  |  | 69.4 µM |  | 28.4 µM |  | > 100 µM |  | > 100 µM |  | > 100 µM |  | 
5 | O=c1oc2c(Br)c(O)c(Br)cc2c2ccccc12 |  | 50.9 µM |  | > 100 µM |  | 64.8 µM |  | 80.5 µM |  | 38.6 µM |  | 51.3 µM |  | 69 µM |  | 50.2 µM |  |  | 71.6 | 
6 | CCCCCCCCCCCCCCCCc1c(C(=O)OC)[nH]c(=S)[nH]c1=O |  | > 50 µM |  | > 50 µM |  | > 50 µM |  |  |  | > 50 µM |  | > 50 µM |  | > 50 µM |  | > 50 µM |  | > 50 µM | 32 | 
7 | O=C1C(CN(Cc2ccccc2)Cc2ccccc2)CCCC1CN(Cc1ccccc1)Cc1ccccc1 (stereo not given) | 54.3 µM and > 86.3 µM | > 100 µM | 17.2 µM and 71.7 µM | 31.1 µM and > 100 µM | 8.03 µM and 36.3 µM | 14.3 µM and > 83 µM |  | > 100 µM | 32.2 µM and > 100 µM | 50 µM and > 100 µM |  |  | 33.3 µM and > 100 µM | 53 µM and > 100 µM |  | > 100 µM |  | > 77 µM and 97.5 µM | > 100 | 77.3
8 | [Ce+3].[Cl-].[O-]/N=C(\c1ccccc1)c1ccccn1.[O-]/N=C(\c1ccccc1)c1ccccn1.[O-]/N=C(\c1ccccc1)c1ccccn1 | 36.3 µM | > 100 µM | 35.7 µM | > 100 µM | 69.8 µM | > 100 µM | 21.5 µM | 72 µM | 59.8 µM | > 100 µM | 21.9 µM | 73.6 µM | 44.4 µM | > 100 µM | 28.8 µM | 85.8 µM | 37.2 µM | > 100 µM |  | 
9 | COC(=O)C1C(=O)O[C@@H](c2ccc(OC)cc2)C1C(=O)OC (stereo not given in full) |  | > 100 µM |  | > 100 µM |  | > 100 µM |  | > 100 µM |  | > 100 µM |  |  |  | > 100 µM |  | > 100 µM |  | > 100 µM | > 100 | 
10 | Cc1cc(NC(=O)NC(=O)c2ccccc2[N+](=O)[O-])ccc1Oc1ncc(Cl)cn1 |  | > 100 µM |  | 35.7 µM |  | 43.8 µM |  | 12.8 µM |  | > 80.5 µM |  | 0.201 µM |  | > 82.3 µM |  | 3.32 µM |  | 24.1 µM |  | 
11 | COC(=O)C1=C2C3=C(C(=O)c4ccccc4C3=O)N(Cc3ccccc3)C2(OC(C)=O)C=CC1=O (stereo not given) | 4.69 µM | > 100 µM | 15.2 µM | 34 µM | 10.8 µM | 26.5 µM | 11.6 µM | 32.6 µM | 11.8 µM | 76.6 µM | 5.56 µM | > 100 µM | 2.86 µM | 23.6 µM | 10.2 µM | 24.9 µM | 27.6 µM | > 100 µM |  | 
12 | Clc1ccc(-c2nc(-c3c[nH]c4ncccc34)cs2)cc1 | > 100 µM | > 100 µM | > 100 µM | > 100 µM | > 100 µM | > 100 µM | > 100 µM | > 100 µM | 97.7 µM | > 100 µM | > 100 µM | > 100 µM | > 100 µM | > 100 µM | > 100 µM | > 100 µM | > 100 µM | > 100 µM |  | 
13 | Cc1oncc1C(=O)Nc1ccc(C(F)(F)F)cc1 | 12.1 µM | > 100 µM | 68.2 µM | > 100 µM | 20.5 µM | > 100 µM | 35.1 µM | > 100 µM | 42.4 µM | > 100 µM | 33.6 µM | > 100 µM | 23 µM | > 100 µM | 29.3 µM | > 100 µM | > 100 µM | > 100 µM |  | 
14 | Nc1ccccc1C#Cc1ccccc1C#Cc1ccccc1N | 2.01 µM | 12.8 µM | 6.62 µM | 24.5 µM | 10.3 µM | 24.1 µM | 12.7 µM | 31.1 µM | 19.3 µM | 70.8 µM | 3.17 µM | 11.5 µM | 10.6 µM | 37 µM | 9.09 µM | 22.9 µM | 15.1 µM | 35.5 µM |  | 
15 | CC(/C=C/C=C/C=C/C=C/C=C/C(O)=C1/C(=O)C(CCC(=O)O)N(C)C1=O)=C\C(C)C(OC1CC(O)C(O)C(C)O1)C(C)C (stereo not given) |  | 15.6 µM |  | 15.2 µM |  | 8.4 µM |  | 11.8 µM |  | 9.75 µM |  | 7.35 µM |  | 14 µM |  | 3.85 µM |  |  | 40.2 | 
16 | Cc1ccc(NC(=O)C2C(=O)C(=O)N(c3ccc(C)cc3)C2=O)cc1 (stereo not given) |  | > 100 µM |  | > 100 µM |  | > 100 µM |  |  |  | > 100 µM |  | > 100 µM |  | > 100 µM |  | > 100 µM |  |  | > 100 | 
17 | O=S(=O)(c1ccc2c(c1)C(=NO)c1cc(S(=O)(=O)N3CCCCC3)ccc1-2)N1CCCCC1 | 0.211 µM and 0.216 µM | 0.452 µM and 0.785 µM | 0.182 µM and 0.187 µM | 0.33 µM and 0.349 µM | > 1 µM and 0.174 µM | > 1 µM and 0.312 µM | 0.292 µM and 0.106 µM | 0.936 µM and 0.298 µM | > 1 µM and 0.162 µM | > 1 µM and 0.314 µM | > 1 µM and 0.107 µM | > 1 µM and 0.252 µM | 0.215 µM and 0.12 µM | 0.44 µM and 0.318 µM | > 1 µM and 0.174 µM | > 1 µM and 0.314 µM | 0.187 µM and 0.162 µM | 0.362 µM and 0.311 µM |  | 
